Assay results: US12048686B2, “Compositions and methods for activating NRF2-dependent gene expression” (The University of Chicago, priority 2018, dated 2024)

Key:
[1] = system: MHS cells (a murine alveolar macrophage cell line); test: PM- or LPS-induced mRNA expression in MHS cells; assay type: cell-based
Method: FIG. 14A-B. MHS cells (a murine alveolar macrophage cell line) were treated with particulate matter (PM) or LPS and vehicle control (media) in the absence or presence of CBR-470-1 (pretreated 4 hours prior to PM/LPS) and measured IL-6 mRNA 4 hours later.
FIG. 15A-B. MHS cells were treated with particulate matter (PM) or LPS and vehicle control (media) in the absence or presence of CBR-470-1 (also noted as Drug in the figure) (pretreated 4 hours prior to PM/LPS) and measured TNFa and NQO1 mRNA 4 hours later. […] NQO1 (NAD(P)H:quinone oxidoreductase), also known as DT-diaphorase, is a major regulator of oxidative stress and activator of mitomycins. ROS produced during metabolic processes are normally converted into harmless products by antioxidant enzymes such as NQO1.
FIG. 16A-B. MHS cells were treated with particulate matter (PM) or LPS and vehicle control (media) in the absence or presence of different doses of CBR-470 (pretreated 4 hours prior to PM/LPS) and measured IL-6 mRNA 4 hours later.
FIG. 17A-B. MHS cells were treated with particulate matter (PM) or LPS and vehicle control (media) in the absence or presence of different doses of CBR-470-1 (pretreated 4 hours prior to PM/LPS) and measured TNFa and NQO1 mRNA 4 hours later.
FIG. 18A-C. MHS cells were treated with particulate matter (PM) or LPS and vehicle control (media) in the absence or presence of CBR-470-1 (5 uM, pretreated 4 hours prior to PM/LPS) and measured IL-6, TNFa and NQO1 mRNA 4 hours and 24 hours later.

PGK1 = target: T1, PGK1 (Homo sapiens, UniProt P00558); test: Recombinant PGK1 assay (GAPDH/PGK1 coupled assay, NADH absorbance); assay type: biochemical; conditions: absorbance 340 nm
T1 sequence (P00558 1-417): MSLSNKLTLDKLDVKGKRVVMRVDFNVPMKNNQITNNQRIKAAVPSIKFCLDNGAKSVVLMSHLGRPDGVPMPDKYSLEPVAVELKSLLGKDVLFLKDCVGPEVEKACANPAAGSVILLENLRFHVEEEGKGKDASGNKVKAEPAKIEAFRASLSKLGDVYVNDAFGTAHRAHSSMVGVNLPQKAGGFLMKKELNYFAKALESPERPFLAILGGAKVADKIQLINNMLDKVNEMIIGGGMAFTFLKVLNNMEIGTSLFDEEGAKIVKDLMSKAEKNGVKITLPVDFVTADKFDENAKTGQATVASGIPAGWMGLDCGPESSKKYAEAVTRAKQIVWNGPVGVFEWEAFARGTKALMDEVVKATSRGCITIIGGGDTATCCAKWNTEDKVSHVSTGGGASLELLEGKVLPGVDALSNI
From the text: FIG. 6A-D. CBR-470-1 inhibits PGK1 in vitro and in situ. (a) Schematic of the GAPDH/PGK1 coupled assay. Pre-equilibration of the GAPDH reaction (top left) results in an NAD^+/NADH equilibrium, which upon addition of PGK1 and ADP pulls the reaction to the right producing more NADH. Monitoring NADH absorbance after addition of PGK1 (bottom right) can be used to monitor PGK1 activity in the forward direction (right). […] (c, d) Relative level of central metabolites in IMR32 cells treated with viral knockdown of PGK1 for 72 hours (c) (n=4) and with CBR-470-1 relative DMSO alone for the indicative times (d) (n=3). Each metabolite is normalized to the control condition at each time point. Data shown represent mean±SEM of biologically independent samples.
Recombinant PGK1 assay. PGK1 enzymatic activity in the forward direction was measured with a coupled enzymatic assay^34. Three PGK1 conditions were prepared by dissolving recombinant PGK1 in potassium phosphate buffer (10 mM KH2PO4, 10 mM MgSO4, pH 7.0), and transferring the aliquots of PGK1 solution to the microtubes being treated with same amount of DMSO and indicated concentrations of CBR-470-1. Final concentration of PGK1 is 20 ng/mL and DMSO is 1% for each sample. […] The change in absorbance at 340 nm at room temperature was measured every 20 seconds for 45 minutes, by Tecan Infinite M200 plate reader. […]

alveolar macrophages = test: PM exposure of alveolar macrophages (Example 6); assay type: cell-based
From the text: FIG. 30A-D. CBR-470 activates NRF2 and inhibits PM-induced inflammatory cytokine production from alveolar macrophages. (a-c) Indicated transcript levels in response to PM exposure for 4 hr in the presence and absence of CBR-470, PGK1 inhibitor (10 micromolar). (d) Western blot analysis of NRF2 protein levels under the conditions in a-c.
FIG. 31. Time dependent effects of CBR-470-1 on alveolar macrophage cytokine mRNA levels at specific timepoints
FIG. 32. […] This represents a distinct mechanism of action compared to many other pharmacologic NRF2 activators, which achieve efficacy through induction of ROS (reactive oxygen species).
Indicated transcript levels in response to PM exposure for 4 hr in the presence and absence of CBR-470-1, PGK1 inhibitor (10 micromolar). Western blot analysis of NRF2 protein levels. PM-exposure also results in activation of the NRF2 pathway, which is confirmed by increased transcript levels of its prototypical target Nqo1 (FIG. 30c) and NRF2 protein accumulation (FIG. 30d). […] FIG. 31 illustrates time dependent effects of CBR-470-1 on alveolar macrophage cytokine mRNA levels at specific timepoints. […] This represents a distinct mechanism of action compared to many other pharmacologic NRF2 activators, which achieve efficacy through induction of ROS (reactive oxygen species).

[2] = pretreated 4 hours, measured 4 hours later
[3] = control and PM-treated cells, PM 4 hr

CC(C)CN[C@H]1CS(=O)(=O)C[C@@H]1S(=O)(=O)c1ccc(Cl)cc1 [CBR-470-1]
NQO1 mRNA ([1]; different doses, 4 hours): induced NQO1 (Nrf2 target gene) under both PM and LPS in a dose dependent manner
TNFa mRNA ([1]; different doses, 4 hours): attenuated PM- and LPS-induced TNFa mRNA expression
IL-6 mRNA [1, 2]: abolished PM- and LPS-induced il6 mRNA expression
NQO1 mRNA [1, 2]: induced NQO1 (Nrf2 target gene) under both PM and LPS
TNFa mRNA [1, 2]: abolished PM- and LPS-induced TNFa mRNA expression
PGK1-dependent activity and accumulation of NADH (PGK1): significantly inhibits PGK1-dependent activity and accumulation of NADH
ROS elevation (alveolar macrophages; alveolar macrophages): does not cause significant ROS elevation in alveolar macrophages
overall cellular bioenergetics (alveolar macrophages; alveolar macrophages): only a slight decrease in overall cellular bioenergetics
Il6 mRNA levels (alveolar macrophages; [3]): dose-dependent decreases in 116 and Tnfα mRNA levels in both control and PM-treated cells
Tnfα mRNA levels (alveolar macrophages; [3]): dose-dependent decreases in 116 and Tnfα mRNA levels in both control and PM-treated cells
NRF2-signaling (Nqo1 transcript, NRF2 protein) (alveolar macrophages; control and PM-treated macrophages): activates NRF2-signaling in both control and PM-treated macrophages
